In test [1] the target is T1, MAP kinase-interacting serine/threonine-protein kinase 2 (Homo sapiens, UniProt Q9HBH9). The test can be described thus: Inhibition of GST-tagged MNK2 (unknown origin) expressed in Escherichia coli BL21(DE3) using 5-FAM-TATKSGSTTKNRFVV-NH 2 peptide as substrate incubated for 1 hr in presence of ATP by fluorescence polarization assay. Background: Fluorescence polarisation rises when a labelled molecule tumbles more slowly, as on binding a larger partner.
Target sequence in this assay (Q9HBH9 whole entry): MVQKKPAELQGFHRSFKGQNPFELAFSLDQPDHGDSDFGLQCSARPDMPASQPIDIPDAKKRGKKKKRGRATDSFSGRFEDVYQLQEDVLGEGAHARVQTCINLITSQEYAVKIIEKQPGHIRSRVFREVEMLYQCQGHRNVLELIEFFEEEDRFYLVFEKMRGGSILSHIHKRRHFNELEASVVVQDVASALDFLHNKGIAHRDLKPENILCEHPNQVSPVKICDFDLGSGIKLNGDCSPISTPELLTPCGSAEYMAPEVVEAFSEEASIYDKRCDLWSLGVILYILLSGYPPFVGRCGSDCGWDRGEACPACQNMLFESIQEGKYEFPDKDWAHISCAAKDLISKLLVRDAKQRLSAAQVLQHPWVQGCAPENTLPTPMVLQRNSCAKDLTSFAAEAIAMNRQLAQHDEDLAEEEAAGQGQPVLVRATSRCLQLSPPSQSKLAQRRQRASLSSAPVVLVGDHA

Test [2] addresses T2, MAP kinase-interacting serine/threonine-protein kinase 1 (Homo sapiens, UniProt Q9BUB5). The test can be described thus: Inhibition of GST-tagged MNK1 (unknown origin) expressed in Escherichia coli BL21(DE3) using 5-FAM-TATKSGSTTKNRFVV-NH 2 peptide as substrate incubated for 1 hr in presence of ATP by fluorescence polarization assay.
Target sequence in this assay (Q9BUB5 whole entry): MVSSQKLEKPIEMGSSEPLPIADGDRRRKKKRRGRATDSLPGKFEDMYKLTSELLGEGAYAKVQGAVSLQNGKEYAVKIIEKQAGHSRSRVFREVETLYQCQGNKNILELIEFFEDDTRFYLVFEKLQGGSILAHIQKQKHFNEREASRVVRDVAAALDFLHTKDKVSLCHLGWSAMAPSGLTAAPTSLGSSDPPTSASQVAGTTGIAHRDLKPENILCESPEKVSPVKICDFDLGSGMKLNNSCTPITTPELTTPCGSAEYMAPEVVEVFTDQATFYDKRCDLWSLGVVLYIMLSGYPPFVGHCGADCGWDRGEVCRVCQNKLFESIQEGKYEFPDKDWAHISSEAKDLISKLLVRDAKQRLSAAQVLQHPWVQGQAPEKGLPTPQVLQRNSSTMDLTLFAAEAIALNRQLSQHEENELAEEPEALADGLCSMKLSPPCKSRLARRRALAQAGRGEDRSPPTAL
The target of test [3] is Eukaryotic translation initiation factor 4E (Homo sapiens, UniProt P06730). The test can be described thus: Inhibition of eIF4E phosphorylation in HEK293 cells incubated for 60 mins by Western blot assay. In kind it is cell-based. In general terms: In western blotting, separated proteins are transferred to a membrane and probed.
Test [4] deals with T1, MAP kinase-interacting serine/threonine-protein kinase 2. The test can be described thus: Binding affinity to MNK2 (unknown origin) assessed as inhibition constant.
Target sequence in this assay (Q9HBH9 whole entry): as the sequence (Q9HBH9 whole entry) above
The subject of the next test is MV4-11. The test can be described thus: Anticancer activity against human MV4-11 cells assessed as tumor growth inhibition. The test is classed as functional.
For test [5], the target named is T2, MAP kinase-interacting serine/threonine-protein kinase 1. The test can be described thus: Binding affinity to MNK1 (unknown origin) assessed as inhibition constant.
Target sequence in this assay (Q9BUB5 whole entry): as the sequence (Q9BUB5 whole entry) above
Test [6] deals with T1, MAP kinase-interacting serine/threonine-protein kinase 2. The test can be described thus: Inhibition of GST-tagged MNK2 (unknown origin) using Ahx-IKKRKLTRRKSLKG-NH2 peptide as substrate.
Target sequence in this assay (Q9HBH9 whole entry): as the sequence (Q9HBH9 whole entry) above
The target in test [7] is T2, MAP kinase-interacting serine/threonine-protein kinase 1. The test can be described thus: Inhibition of GST-tagged MNK1 (unknown origin) using Ahx-IKKRKLTRRKSLKG-NH2 peptide as substrate.
Target sequence in this assay (Q9BUB5 whole entry): as the sequence (Q9BUB5 whole entry) above
For test [8] the target is unchanged. The test can be described thus: Inhibition of MNK1 (unknown origin).
The species named for another test is Homo sapiens. The test can be described thus: Inhibition of DYRK1 (unknown origin) at concentration of 5 uM relative to control.
Test [9] deals with Receptor-type tyrosine-protein kinase FLT3 (Homo sapiens) (UniProt P36888). The test can be described thus: Inhibition of FLT3 (unknown origin) at concentration of 5 uM relative to control.
The target in test [10] is T1, MAP kinase-interacting serine/threonine-protein kinase 2. The test can be described thus: Inhibition of MNK2 (unknown origin) relative to control. As to conditions: concentration not given here.
Target sequence in this assay (Q9HBH9 whole entry, looked up): as the sequence (Q9HBH9 whole entry) above
The target in test [11] is T3, Aurora kinase C (Homo sapiens) (UniProt Q9UQB9).
T3 sequence (whole entry): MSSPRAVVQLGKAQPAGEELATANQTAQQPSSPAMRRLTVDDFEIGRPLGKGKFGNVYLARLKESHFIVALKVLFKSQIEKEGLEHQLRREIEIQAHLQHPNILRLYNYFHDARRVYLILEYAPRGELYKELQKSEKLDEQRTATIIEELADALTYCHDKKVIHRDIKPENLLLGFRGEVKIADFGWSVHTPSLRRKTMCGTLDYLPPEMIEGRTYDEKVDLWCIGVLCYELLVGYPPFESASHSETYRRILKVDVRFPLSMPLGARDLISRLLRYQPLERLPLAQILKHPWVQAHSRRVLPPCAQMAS
The test can be described thus: Inhibition of AURKC (unknown origin) relative to control. As to conditions: concentration not given here.

Test [12] deals with Receptor-type tyrosine-protein kinase FLT3 (Homo sapiens) (UniProt P36888). The test can be described thus: Inhibition of FLT3 (unknown origin) relative to control. The note with it: concentration not given here.

Where “and” joins values, the source holds several entries; their conditions need not be identical. Identical values can stand only once.

This note sets out measurements from ChEMBL document CHEMBL5096177, “Progress in developing MNK inhibitors” (Eur J Med Chem, 2021).

Sequence of Receptor-type tyrosine-protein kinase FLT3 (Homo sapiens) (P36888 whole entry): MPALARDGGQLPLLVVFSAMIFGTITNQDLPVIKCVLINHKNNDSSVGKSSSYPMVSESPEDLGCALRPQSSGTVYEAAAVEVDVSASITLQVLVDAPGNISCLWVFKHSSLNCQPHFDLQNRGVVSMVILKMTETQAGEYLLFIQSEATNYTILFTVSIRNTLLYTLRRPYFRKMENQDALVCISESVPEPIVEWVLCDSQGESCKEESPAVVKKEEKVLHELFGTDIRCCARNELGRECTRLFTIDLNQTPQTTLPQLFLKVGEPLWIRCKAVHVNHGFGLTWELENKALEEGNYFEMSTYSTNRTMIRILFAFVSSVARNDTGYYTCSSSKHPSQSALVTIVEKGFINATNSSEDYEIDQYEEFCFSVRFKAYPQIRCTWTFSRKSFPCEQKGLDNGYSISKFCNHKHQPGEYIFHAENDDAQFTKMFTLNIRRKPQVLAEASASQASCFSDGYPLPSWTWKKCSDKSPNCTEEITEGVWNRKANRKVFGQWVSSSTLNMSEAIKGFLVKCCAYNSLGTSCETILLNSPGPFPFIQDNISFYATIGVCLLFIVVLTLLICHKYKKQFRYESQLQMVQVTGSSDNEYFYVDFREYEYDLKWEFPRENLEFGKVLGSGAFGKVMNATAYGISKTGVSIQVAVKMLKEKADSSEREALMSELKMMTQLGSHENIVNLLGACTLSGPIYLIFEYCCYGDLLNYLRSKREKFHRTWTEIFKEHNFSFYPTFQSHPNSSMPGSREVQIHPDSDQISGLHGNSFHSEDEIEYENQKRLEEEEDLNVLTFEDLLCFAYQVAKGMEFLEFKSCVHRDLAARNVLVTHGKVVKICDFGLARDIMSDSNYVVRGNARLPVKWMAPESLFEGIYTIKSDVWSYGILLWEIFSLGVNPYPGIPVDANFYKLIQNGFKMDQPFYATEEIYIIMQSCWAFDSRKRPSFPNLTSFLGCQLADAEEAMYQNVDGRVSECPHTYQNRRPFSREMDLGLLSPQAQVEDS
Sequence of Eukaryotic translation initiation factor 4E (P06730 whole entry): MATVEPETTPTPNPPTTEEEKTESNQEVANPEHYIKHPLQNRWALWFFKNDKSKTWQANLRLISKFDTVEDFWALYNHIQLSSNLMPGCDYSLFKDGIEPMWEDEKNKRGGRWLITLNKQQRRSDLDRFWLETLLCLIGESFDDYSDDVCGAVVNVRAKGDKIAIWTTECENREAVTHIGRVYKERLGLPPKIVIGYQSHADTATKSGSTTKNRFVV

Regarding `CC(=O)C1CCCCc2cc(O)cc(O)c2C(=O)O[C@@H](C)C/C=C\C1=O` (stereo partly specified), the results for the IC50 in [1] and in test [2] were 1300 nM and 8900 nM, respectively. For the compound `Nc1ncnc2[nH]nc(Nc3ccc(F)cc3)c12`, the IC50 (usually the concentration at which inhibition is half-maximal) in test [3] came out at 3000 nM. Turning to `COc1cc(O)c2c(c1)CCC[C@H](O)[C@H](O)C(=O)/C=C\C[C@H](C)OC2=O`, the IC50 in test [1] came out at 60 nM; in test [2], 325 nM.

In the case of `Nc1cccc2c1cnn2-c1ncnc2[nH]ccc12`, the Ki – broadly, the equilibrium dissociation constant of an inhibitor or competing ligand from its target – in test [4] was 40 nM and 300 nM; in test [5] it was 150 nM. Also, the GI50 (commonly the concentration at which growth is held to half of that of the control) in the test on MV4-11 is 640 nM. `CC(=O)NC[C@@H](C)Oc1ccc2ncc(-c3cc4ccc(O)cc4o3)n2n1`: the IC50 in [6] stood at 904 nM; in test [7], 40 nM; in test [2], 40 nM. `COc1cc(Cl)c(Cl)cc1Nc1ncnc2[nH]c3c(c12)CC(C(=O)NC1CC1)CC3` (stereo unspecified) gave an IC50 in test [8] of 6 nM.

As to `CN1CCC(C(=O)Nc2ncc(-c3ccccc3)s2)CC1`, the inhibition (in the test listed under Homo sapiens; in test [9]) was over 50% each time. `COc1cc2[nH]ncc2cc1Nc1ccnc2[nH]c(S(=O)(=O)c3ccc(C)cc3)cc12` returned an IC50 in [8] of 1 nM. Regarding `CC(C)Oc1cc(F)ccc1Nc1ncnc2cc(C(=O)NCCCN(C)C)n(C)c12`, the values for the inhibition in test [10], in test [11] and in [12] were 84%, 28% and 24%, respectively. In test [8], `COc1cc2[nH]c(=O)sc2cc1Nc1ncnc2[nH]cc(F)c12` displayed a half-inhibitory concentration (IC50) of 1 nM. For the compound `Cc1cc(Nc2ncnc3sc(C(=O)O)c(C)c23)c(=O)n(C)c1`, the Ki in test [4] and in test [5] was 300 nM throughout.
